Source: patent publication US6518314B1, “Pharmaceutical agents that impede the initiation and progression of primary and secondary DMS disruptions” (Nymox Corporation, priority 1997, dated 2003)

System: human DMS
Experiment: In vivo assay: intracerebral injection of human DMS plus compound into rats, histology of DMS disruption site
Settings: for Persistence of Inflamm. Reaction: ratio of number of acute inflammatory cells (excluding macrophages) per DMS at the DMS disruption site; for Persistence of Inflamm. Reaction / Digestion and removal of DMS: compared to control (ii) normalized to 1.0, compound at 10^−5M; for Digestion and removal of DMS: ratio of number of macrophages containing DMS material per DMS at the DMS disruption site; for Mean Volume Disrupted DMS: mean tissue volume of transformed redistributed disrupted DMS protein per individual DMS, rats, about 100,000 human DMS and compound at 10^−5M

Structure (SMILES)	Persistence of Inflamm. Reaction	Digestion and removal of DMS	Mean Volume Disrupted DMS
CN(C)C(=O)Oc1ccc[n+](C)c1 [Pyridostigmine bromide]	1.1	1.0	–
Cn1cnc2c1c(=O)n(CCOC(c1ccccc1)c1ccccc1)c(=O)n2C [Compound 13]	<0.01	>10	1625 μ^3
CN(CCC=C1c2ccccc2CCc2ccccc21)CCOC(c1ccccc1)c1ccccc1 [Compound 9, 3-(10,11-Dihydro-5H-dibenzo[a,d]cyclohepten-5-ylidene-N-methyl-N-[2-(diphenylmethoxy)ethyl)]-1-propaneamine]	<0.01	>10	482 μ^3
Clc1ccc2c(c1)C(N1CCNCC1)=Nc1ccccc1O2 [Amoxepine]	1.1	1.0	1.36 × 10^5 μ^3
c1ccc(C(OCCOC(c2ccccc2)c2ccccc2)c2ccccc2)cc1 [Compound 2, 1,2-Bis(diphenylmethoxy)ethane]	<0.01	>10	560 μ^3
COC(=O)C(c1ccccc1)C1CCCCN1 (stereo not drawn) [Methylphenidate]	1.1	1.01	5.8 × 10^4 μ^3
O=C1Nc2ccc(Cl)cc2C(c2ccccc2Cl)=NC1O (stereo not drawn) [Lorazepam]	1.1	1.0	8.2 × 10^4 μ^3
Nc1c2c(nc3ccccc13)CCCC2 [Tacrine]	1.1	1.0	1.4 × 10^5 μ^3
FC(F)(F)c1ccc(C(OCCOC(c2ccccc2)c2ccc(C(F)(F)F)cc2)c2ccccc2)cc1 (stereo not drawn) [Compound 5, 1,2-Bis(4-trifluoromethylphenylphenylmethoxy)ethane]	<0.01	>10	940 μ^3
Clc1ccc(C(OCCOC(c2ccccc2)c2ccc(Cl)cc2)c2ccccc2)cc1 (stereo not drawn) [Compound 4, 1,2-Bis(4chlorophenylphenylmethoxy)ethane]	<0.01	>10	580 μ^3
C#CCN(C)[C@H](C)Cc1ccccc1 [Selegiline]	1.0	1.0	1.3 × 10^5 μ^3
CN1[C@@H]2CC[C@H]1C[C@@H](OC(=O)C(CO)c1ccccc1)C2 (stereo partly drawn) [Atropine]	1.0	1.0	–
Cc1ccccc1C(OCCOC(c1ccccc1)c1ccccc1C)c1ccccc1 (stereo not drawn) [Compound 6, 1,2-Bis(2-methylphenylphenylmethoxy)ethane]	<0.01	>10	940 μ^3
CC[C@@H]1C(=O)OC[C@@H]1Cc1cncn1C [Pilocarpine]	1.1	1.0	1.7 × 10^5 μ^3
CC(COc1ccc(/C(=C/c2ccccc2)c2ccccc2)cc1)N1CCN(C(c2ccccc2)c2ccccc2)CC1 (stereo not drawn) [Compound 12]	<0.01	>10	740 μ^3
CN(C)C(=O)Oc1cccc([N+](C)(C)C)c1 [Neostigmine]	1.1	1.0	1.4 × 10^5 μ^3
CN1C[C@H](C(=O)N[C@]2(C)O[C@@]3(O)[C@@H]4CCCN4C(=O)[C@H](Cc4ccccc4)N3C2=O)C=C2c3cccc4[nH]cc(c34)C[C@H]21 [Ergotamine]	1.0	1.0	5.8 × 10^4 μ^3
Cn1cnc2c1c(=O)n(CCOC(c1ccccc1)c1ccc(Cl)cc1)c(=O)n2C (stereo not drawn) [Compound 14]	<0.01	>10	1625 μ^3
COC(=O)C1=C(C)N(CCOC(c2ccccc2)c2ccccc2)C(C)=C(C(=O)OC)C1c1ccccc1 [Compound 11]	<0.01	>10	1260 μ^3
CC(C)C[C@H]1C(=O)N2CCC[C@H]2[C@]2(O)O[C@](NC(=O)[C@@H]3C=C4c5cccc6[nH]c(Br)c(c56)C[C@H]4N(C)C3)(C(C)C)C(=O)N12 [Bromocriptine]	1.0	1.0	1.04 × 10^5 μ^3
CN1C(=O)CN=C(c2ccccc2)c2cc(Cl)ccc21 [Diazepam]	1.1	1.0	6.5 × 10^4 μ^3
CC[N+](C)(C)c1cccc(O)c1 [Edrophonium Chloride]	1.0	1.0	–
CN(CCC=C1c2ccccc2CCc2ccccc21)CCOC(c1ccccc1)c1ccc(Cl)cc1 (stereo not drawn) [Compound 10, 3-(10,11-Dihydro-5H-dibenzo[a,d]cyclohepten-5-ylidene-N-methyl-N-[2-(4-chlorophenylphenylmethoxy)ethyl)]-1-propaneamine]	<0.01	>10	460 μ^3
CC(Cc1ccccc1)N1CCN(C(c2ccccc2)c2ccccc2)CC1 (racemic) [Compound 1, (±)-1-(1-Phenylisopropyl)-4-(diphenylmethyl)piperazine]	<0.01	>10	1250 μ^3
CCCN1C[C@H](CSC)C[C@@H]2c3cccc4[nH]cc(c34)C[C@H]21 [Pergolide]	1.1	1.0	1.2 × 10^5 μ^3
C[C@@H](CO)NC(=O)[C@@H]1C=C2c3cccc4[nH]cc(c34)C[C@H]2N(C)C1 [Ergonovine]	1.0	1.0	5.2 × 10^4 μ^3
CNC(=O)Oc1ccc2c(c1)[C@]1(C)CCN(C)[C@@H]1N2C [Physostigmine]	1.0	1.0	1.1 × 10^5 μ^3
CN(C)CCCN1c2ccccc2CCc2ccccc21 [Imipramine]	1.0	1.0	1.38 × 10^5 μ^3
O=C1Nc2ccc(Cl)cc2C(c2ccccc2)=NC1O (stereo not drawn) [Oxazepam]	1.1	1.0	6.8 × 10^4 μ^3
CCOC(=O)C1(c2ccccc2)CCN(C)CC1 [Meperidine]	1.0	1.0	2.1 × 10^5 μ^3
